Test results: US10125356B2, “Enzymatic methods and enzymes” (Givaudan SA, priority 2007, dated 2018)

Legend:
C. sp. Ax 20 extract = experiment: Cleavage of conjugates by Corynebacterium sp. Ax20 cellular extract, release of 3-sulfanyl-3-methyl-hexanol by gas chromatography; assay type: biochemical; conditions: conjugate 1 mM incubated with C. sp. Ax 20 extract for 24 h
Procedure: The test compounds (cys-conjugate (1 mM) or cys-gly-conjugate (1 mM)) were incubated also with the wild-type strain Corynebacterium sp. Ax20 extract naturally containing the peptidase of SEQ ID NO:2. Corynebacterium sp. Ax20 cellular extract was prepared as described in example 1. The resulting extract was diluted to the same volume as the original culture has had when adjusted to an optical density of OD 4. The substrate was incubated with the extract for 24 h.
(§1) Cleavage was measured by gas chromatography to determine the release of 3-sulfanyl-3-methyl-hexanol in mM.

Ax20 peptidase = experiment: Substrate specificity of recombinant Ax20 peptidase, cleavage by thin layer chromatography; assay type: biochemical, Corynebacterium sp. Ax20; conditions: 1 mM solution, 0.1 or 1 μg/ml peptidase, incubation 1 h
Procedure: The recombinant Ax20 peptidase formed as described in example 3 (affinity column purified tagged enzyme) was incubated with different compounds, in particular potential candidate dipeptide substrates, to characterize the substrate specificity and to identify substrates useful for screening assays (for example to screen for modulators including inhibitors).
The table below lists the tested compounds (mostly dipeptides indicated by their short names, e.g. ala-gly for an alanine-glycine dipeptide) and indicates whether they are cleaved by the peptidase. Z indicates a benzyloxy-carbonyl protecting group at the N-terminus of the peptide.
Cleavage was determined by thin layer chromatography.
Amounts are qualitative with (+++) indicating >80% cleavage of a 1 mM solution by 0.1 μg/ml peptidase during an incubation for 1 h; (++) indicates complete cleavage of a 1 mM solution by 1 μg/ml peptidase during an incubation for 1 h and (+) indicates partial cleavage (20-80%) of a 1 mM solution by 1 μg/ml peptidase during an incubation for 1 h and (−) indicating the absence of any cleavage.

β-lyase = biological target: T1, β-lyase (Corynebacterium striatum, UniProt Q64HC5); experiment: Cleavage of conjugates by β-lyase, release of 3-sulfanyl-3-methyl-hexanol by gas chromatography; assay type: biochemical, Corynebacterium sp. Ax20; conditions: conjugate 1 mM incubated with β-lyase
T1 construct: made in house
T1 sequence (Q64HC5 whole entry): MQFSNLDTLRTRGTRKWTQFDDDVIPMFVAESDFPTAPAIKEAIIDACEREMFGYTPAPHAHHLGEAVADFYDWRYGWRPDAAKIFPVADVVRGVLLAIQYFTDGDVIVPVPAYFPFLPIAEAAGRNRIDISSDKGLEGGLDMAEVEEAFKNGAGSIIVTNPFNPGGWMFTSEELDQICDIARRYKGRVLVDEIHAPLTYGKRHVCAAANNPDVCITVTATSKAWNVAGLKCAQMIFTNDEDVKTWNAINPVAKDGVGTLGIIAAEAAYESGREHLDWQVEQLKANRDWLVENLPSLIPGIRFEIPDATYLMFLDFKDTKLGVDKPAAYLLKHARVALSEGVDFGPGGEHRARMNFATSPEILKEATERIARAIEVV
Procedure: The test compounds (Cys-conjugate (1 mM) or Cys-Gly-conjugate (1 mM)) were incubated with β-lyase.
as §1

[1] = system: K411 peptidase (SEQ ID NO: 4); experiment: Release of 3-sulfanyl-3-methyl-hexanol from cys-gly-conjugate by clear lysate of recombinant E. coli expressing K411 peptidase, monobromobimane fluorescence test; assay type: biochemical, Corynebacterium jeikeium K411; conditions: conjugate 1 mM
Procedure: (§2) Samples of each fraction were incubated both with the β-lyase and with the cys-gly-conjugate at the same time, and the release of 3-sulfanyl-3-methyl-hexanol was determined by a fluorescence test specific for free SH groups: To this end the enzyme reaction was stopped by adding 0.5 volumes of NaCO3-buffer (0.1 M, pH 8.8) containing 0.5 mM monobromobimane, thus derivatising the free thiol-group. Fluorescence was then measured on a Flex-station (Molecular devices, Sunnyvale, Calif., USA) with an excitation wavelength of 385 nm and an emission wavelength of 480 nm.
(§3) 50 ml of recombinant E. coli culture formed as described in example 3 and 4 was harvested, resuspended in a final volume of 3 ml of phosphate buffer and then disrupted with ultrasonication. The soluble extract was cleared by centrifugation. Different dilutions of the resulting extract were incubated with the cys-gly-conjugate (1 mM) and in presence as well as in absence of an excess of the β-lyase. As a negative control, clear cell lysate from E. coli transformed with an empty vector, and cell lysates with the cys-gly-conjugate but no β-lyase were used.

[2] = system: Ax20 peptidase (SEQ ID NO: 2); experiment: Release of 3-sulfanyl-3-methyl-hexanol from cys-gly-conjugate by clear lysate of recombinant E. coli expressing Ax20 peptidase, monobromobimane fluorescence test; assay type: biochemical, Corynebacterium sp. Ax20; conditions: conjugate 1 mM
Procedure: as §2, §3

CCCC(C)(CCO)SC[C@H](N)C(=O)NCC(=O)O (stereo in doubt) [Cys-gly-conjugate, (1-(2-hydroxyethyl)-1-methylbutyl)-L-cysteinyl-glycine] was tested, and the “release of 3-sulfanyl-3-methyl-hexanol from the conjugate” value (C. sp. Ax 20 extract) was 0.21 mM, the Cleavage (Ax20 peptidase) was “+++ ((+++) indicating >80% cleavage of a 1 mM solution by 0.1 μg/ml peptidase during an incubation for 1 h)” and the “release of 3-sulfanyl-3-methyl-hexanol from the conjugate” value (β-lyase) was under 0.03 mM. For the same molecule, the “release of 3-sulfanyl-3-methyl-hexanol from the Cys-Gly-conjugate” value (from here on “release … from the Cys-Gly-conjugate”) ([1]; K411 peptidase + β-lyase, clear cell lysate diluted 10 fold) was 0.55 mM, the “release … from the Cys-Gly-conjugate” value ([1]; K411 peptidase + β-lyase, clear cell lysate diluted 100 fold) was 0.19 mM and the “release … from the Cys-Gly-conjugate” value ([1]; K411 peptidase + β-lyase, clear cell lysate diluted 1000 fold) was 0.03 mM. The “release … from the Cys-Gly-conjugate” value ([1]; K411 peptidase w/o β-lyase, clear cell lysate diluted 10 fold) was 0.10 mM, the “release … from the Cys-Gly-conjugate” value ([1]; K411 peptidase w/o β-lyase, clear cell lysate diluted 100 fold) was under 0.01 mM and the “release … from the Cys-Gly-conjugate” value ([1]; K411 peptidase w/o β-lyase, clear cell lysate diluted 1000 fold) was under 0.01 mM. For the same molecule, the “release … from the Cys-Gly-conjugate” value ([2]; Ax20 peptidase + β-lyase, clear cell lysate diluted 10 fold) was 1.00 mM, the “release … from the Cys-Gly-conjugate” value ([2]; Ax20 peptidase + β-lyase, clear cell lysate diluted 100 fold) was 0.92 mM and the “release … from the Cys-Gly-conjugate” value ([2]; Ax20 peptidase + β-lyase, clear cell lysate diluted 1000 fold) was 0.46 mM. For the same molecule, the “release … from the Cys-Gly-conjugate” value ([2]; Ax20 peptidase w/o β-lyase, clear cell lysate diluted 10 fold) was 0.10 mM, the “release … from the Cys-Gly-conjugate” value ([2]; Ax20 peptidase w/o β-lyase, clear cell lysate diluted 100 fold) was under 0.01 mM and the “release … from the Cys-Gly-conjugate” value ([2]; Ax20 peptidase w/o β-lyase, clear cell lysate diluted 1000 fold) was under 0.01 mM. For the same molecule, the “release … from the Cys-Gly-conjugate” value ([2]; Ax20 peptidase with histidine tag + β-lyase, clear cell lysate diluted 10 fold) was 0.94 mM, the “release … from the Cys-Gly-conjugate” value ([2]; Ax20 peptidase with histidine tag + β-lyase, clear cell lysate diluted 100 fold) was 0.88 mM and the “release … from the Cys-Gly-conjugate” value ([2]; Ax20 peptidase with histidine tag + β-lyase, clear cell lysate diluted 1000 fold) was 0.36 mM.
